The values that follow are results of earlier work, collected in patent US8952004B2, “CXCR3 receptor antagonists” (Boehringer Ingelheim International GmbH, priority 2010, dated 2015).

This data set deals with atherosclerotic lesion formation. The conditions noted are these: LDL receptor knockout model, dosed prophylactically.

Regarding `CCOc1ccc(-n2c(C(C)N(Cc3cccnc3)C(=O)Cc3ccc(F)c(C(F)(F)F)c3)nc3ncccc3c2=O)cc1` (stereo not shown) [NBI-74330], the atherosclerotic lesion formation result was “significantly attenuated atherosclerotic lesion formation”.
